Here are results for 30 compounds from patent US20240254119A1 (THIRD HARMONIC BIO, INC., priority 2022, published 2024).

The test system of data set [1] is Caco-2 cells. The data set is described as follows: Caco-2 permeability assay. It is filed as in vitro ADME. The following applies: for Caco-2: Papp A-B: Caco-2, apical to basolateral. Here is the method:
Exemplary compounds were tested for cell permeability in Caco-2, MDCKII-MDR1 and MDCKII-BCRP cell lines with efflux transporter engagement inferred from the efflux ratios determined. Procedures and results are described below. […] This feature of certain compounds is in part due to efflux transporter engagement. See, for instance, exemplary such compounds included in data tables below.
The transport buffer in the study was HBSS with 10.0 mM HEPES at pH 7.40±0.05. Test compound was tested at 2.00 μM bi-directionally in duplicate. Digoxin was tested at 10.0 μM bi-directionally in duplicate, while nadolol and metoprolol were tested at 2.00 μM in A to B direction in duplicate. Final DMSO concentration was adjusted to less than 1%. The plate was incubated for 2 hours in CO2 incubator at 37±1° C., with 5% CO2 at saturated humidity without shaking. And all samples after mixed with acetonitrile containing internal standard were centrifuged at 3200×g for 10 min. For nadolol and metoprolol, 200 μL supernatant solution was diluted with 600 μL ultra-pure water for LC-MS/MS analysis. For digoxin and test compounds, 200 μL supernatant solution was diluted with 200 μL ultra-pure water for LC-MS/MS analysis. Concentrations of test and control compounds in starting solution, donor solution, and receiver solution were quantified by LC-MS/MS methodologies, using peak area ratio of analyte/internal standard.
After transport assay, lucifer yellow rejection assay was applied to determine the Caco-2 cell monolayer integrity.
[…] And permeation of lucifer yellow through the monolayer was measured to evaluate the cellular integrity.
The apparent permeability coefficient Papp (cm/s) was calculated using the equation: Papp=(dCr/dt)×Vr/(A×C0), where dCr/dt is the cumulative concentration of compound in the receiver chamber as a function of time (μM/s); Vr is the solution volume in the receiver chamber (0.075 mL on the apical side, 0.25 mL on the basolateral side); A is the surface area for the transport, i.e. 0.0804 cm^2 for the area of the monolayer; C0 is the initial concentration in the donor chamber (μM).
The efflux ratio was calculated using the equation: Efflux Ratio=Papp (BA)/Papp(AB).
Percent recovery was calculated using the equation: % Solution Recovery=100×[(Vr×Cr)+(Vd×Cd)]/(Vd×C0), where Vd is the volume in the donor chambers (0.075 mL on the apical side, 0.25 mL on the basolateral side); Cd and Cr are the final concentrations of transport compound in donor and receiver chambers, respectively.

The target of data set [2] is T1, PDGFRα (Homo sapiens, UniProt P16234).
T1 construct: purchased Millipore 14-467 (lot 26321_ACTI)
Nature of the data set: HTRF biochemical assay, PDGFRα. To be noted: Table 4, read-out: PDFGRα Biochemical IC50 avg. The procedure, abridged: (§1)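 Kinase phosphorylation of a FAM-labelled peptide substrate, with ATP and Mn^2+ cofactors, run for 3 h at 25 °C, with optional enzyme–compound pre-incubation. Reactions were quenched with EDTA, and phosphopeptide was detected by anti-phosphotyrosine antibody HTRF.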
Background: In TR-FRET formats the signal depends on donor and acceptor labels being close together.

The target of data set [3] is T2, CSF-1R (Homo sapiens, UniProt P07333).
T2 construct: purchased Invitrogen PV3249 (lot 662393N)
The data set is described as follows: HTRF biochemical assay, CSF-1R. To be noted: Table 4. An outline of the steps: as §1

T1 sequence (P16234 24-1089): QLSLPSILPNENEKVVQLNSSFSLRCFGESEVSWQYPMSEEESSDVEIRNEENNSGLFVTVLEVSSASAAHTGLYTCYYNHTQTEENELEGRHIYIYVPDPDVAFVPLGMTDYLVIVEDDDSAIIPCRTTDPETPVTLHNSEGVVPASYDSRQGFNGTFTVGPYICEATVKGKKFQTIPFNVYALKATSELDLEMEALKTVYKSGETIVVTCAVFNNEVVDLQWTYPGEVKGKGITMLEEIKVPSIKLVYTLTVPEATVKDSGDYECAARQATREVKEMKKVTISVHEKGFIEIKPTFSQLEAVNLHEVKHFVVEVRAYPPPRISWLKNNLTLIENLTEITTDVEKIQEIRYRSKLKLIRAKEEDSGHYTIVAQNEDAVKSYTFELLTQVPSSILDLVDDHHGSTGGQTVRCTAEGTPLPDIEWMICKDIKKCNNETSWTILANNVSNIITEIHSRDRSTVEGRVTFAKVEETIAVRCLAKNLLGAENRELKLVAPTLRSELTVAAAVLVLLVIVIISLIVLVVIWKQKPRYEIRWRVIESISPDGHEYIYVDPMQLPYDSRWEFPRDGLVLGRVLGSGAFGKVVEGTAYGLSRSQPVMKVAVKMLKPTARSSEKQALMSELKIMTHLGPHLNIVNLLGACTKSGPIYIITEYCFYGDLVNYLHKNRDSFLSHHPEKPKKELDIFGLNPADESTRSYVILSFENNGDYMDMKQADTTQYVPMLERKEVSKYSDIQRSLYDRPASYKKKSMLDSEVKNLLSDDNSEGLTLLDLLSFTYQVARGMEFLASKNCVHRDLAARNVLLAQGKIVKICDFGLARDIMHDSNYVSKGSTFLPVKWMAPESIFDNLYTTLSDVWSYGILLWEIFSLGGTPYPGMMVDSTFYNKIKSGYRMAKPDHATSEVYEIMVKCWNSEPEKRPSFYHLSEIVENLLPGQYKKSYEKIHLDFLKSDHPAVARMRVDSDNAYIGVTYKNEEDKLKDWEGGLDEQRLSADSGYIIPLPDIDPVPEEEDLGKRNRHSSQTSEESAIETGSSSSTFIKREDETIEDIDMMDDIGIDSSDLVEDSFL
T2 sequence (P07333 20-972): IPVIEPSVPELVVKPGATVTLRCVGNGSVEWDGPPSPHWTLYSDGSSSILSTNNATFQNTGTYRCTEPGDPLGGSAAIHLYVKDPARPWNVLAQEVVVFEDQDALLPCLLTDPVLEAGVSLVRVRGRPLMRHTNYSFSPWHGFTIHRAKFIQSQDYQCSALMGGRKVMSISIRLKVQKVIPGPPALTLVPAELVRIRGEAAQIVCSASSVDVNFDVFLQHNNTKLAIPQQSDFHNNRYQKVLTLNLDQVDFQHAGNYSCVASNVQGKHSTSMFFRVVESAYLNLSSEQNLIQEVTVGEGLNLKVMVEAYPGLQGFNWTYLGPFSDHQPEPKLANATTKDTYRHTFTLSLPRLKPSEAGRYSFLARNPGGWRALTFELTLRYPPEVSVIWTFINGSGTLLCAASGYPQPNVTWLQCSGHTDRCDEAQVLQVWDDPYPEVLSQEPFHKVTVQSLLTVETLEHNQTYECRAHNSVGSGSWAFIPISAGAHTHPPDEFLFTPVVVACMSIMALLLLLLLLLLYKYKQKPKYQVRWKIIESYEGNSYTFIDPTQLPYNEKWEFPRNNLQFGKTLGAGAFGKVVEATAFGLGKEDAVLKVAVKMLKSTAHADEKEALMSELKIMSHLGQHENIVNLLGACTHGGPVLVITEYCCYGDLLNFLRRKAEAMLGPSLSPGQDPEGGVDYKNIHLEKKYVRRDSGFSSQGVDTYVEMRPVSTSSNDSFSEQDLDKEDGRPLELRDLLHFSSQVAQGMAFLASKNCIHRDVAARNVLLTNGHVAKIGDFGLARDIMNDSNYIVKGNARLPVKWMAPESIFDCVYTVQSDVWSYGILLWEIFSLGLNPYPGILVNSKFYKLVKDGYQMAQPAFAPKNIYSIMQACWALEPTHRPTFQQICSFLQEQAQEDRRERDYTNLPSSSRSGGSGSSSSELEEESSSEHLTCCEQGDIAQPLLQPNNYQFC

`COC(=O)N1CC(c2nc(-c3ccc(C)c(NC(=O)c4cnn5ccc(Br)cc45)c3)no2)C1` [Compound I-280]: in data set [1], the “Caco-2: Efflux Ratio” value is 0.86 and the “Caco-2: Papp A-B” value is on record as 14 10^−6 cm/s.

Turning to `Cc1ccc(-c2noc(C(C)O)n2)cc1NC(=O)c1cnc2ccccn12` (racemic) [Compound I-364], in data set [1], the “Caco-2: Efflux Ratio” value was determined as 3.09 and the “Caco-2: Papp A-B” value is reported as 8.39 10^−6 cm/s.

With `Cc1ccc(-c2noc(C3CCC(F)C3)n2)cc1NC(=O)c1cnc2ccccn12` (racemic) [Compound I-319], in data set [1], the “Caco-2: Efflux Ratio” value is 0.83 and the “Caco-2: Papp A-B” value was 16 10^−6 cm/s.

Consider `Cc1ccc(-c2noc(C3CC(F)C3)n2)cc1NC(=O)c1cnc2ccccn12` (centres unmarked) [Compound I-381], for which, in data set [1], the “Caco-2: Efflux Ratio” value was found to be 0.97 and the “Caco-2: Papp A-B” value is 17.1 10^−6 cm/s.

One may read the IC50 as the point on the concentration scale where inhibition reaches its midpoint. As to `COc1ccn2c(C(=O)Nc3cc(-c4noc(C5CC(F)(F)C5)n4)ccc3C)cnc2c1` [Compound I-96], the IC50 is 0.05 to 0.5 µM in data set [2] and at most 0.05 µM in data set [3].

On to `Cc1nc(-c2ccc(Cl)c(NC(=O)c3cnc4ccccn34)c2)no1` [Compound I-172], for which, in data set [1], the “Caco-2: Efflux Ratio” value came to 0.49 and the “Caco-2: Papp A-B” value is listed as 12.9 10^−6 cm/s.

On to `Cc1ccc(-c2noc(CC(C)(C)O)n2)cc1NC(=O)c1cnc2ccccn12` [Compound I-336], for which, in data set [1], the “Caco-2: Efflux Ratio” value is recorded as 2.62 and the “Caco-2: Papp A-B” value is 9.39 10^−6 cm/s. In addition, the IC50 in data set [2] is 0.05 to 0.5 µM. The IC50 in data set [3] fell in the range of 0.05 to 0.5 µM.

With `Cc1ccc(-c2noc(CC(O)C(F)F)n2)cc1NC(=O)c1cnc2ccccn12` (centres unmarked) [Compound I-122], the results for the 50% inhibitory concentration (IC50) in data set [2] and in data set [3] were 0.5 to 5 µM and 0.05 to 0.5 µM, respectively.

With `Cc1ccc(-c2noc(C3CCC3F)n2)cc1NC(=O)c1cnc2ccccn12` (racemic) [Compound I-376], in data set [1], the “Caco-2: Efflux Ratio” value stood at 0.85 and the “Caco-2: Papp A-B” value is 19.5 10^−6 cm/s.

Consider `Cc1ccc(-c2noc([C@H]3C[C@@H]3F)n2)cc1NC(=O)c1cnc2ccc(C#N)cn12` [Compound I-384], for which, in data set [1], the “Caco-2: Efflux Ratio” value was 0.90 and the “Caco-2: Papp A-B” value is 16.5 10^−6 cm/s.

Take `CNC(=O)N1CC(c2nc(-c3ccc(C)c(NC(=O)c4cnc5ccccn45)c3)no2)C1` [Compound I-282]: in data set [1], the “Caco-2: Efflux Ratio” value came to 152 and the “Caco-2: Papp A-B” value is reported as 0.14 10^−6 cm/s.

In the case of `Cc1ccc(-c2noc(C3CN(C(=O)CO)C3)n2)cc1NC(=O)c1cnc2ccccn12` [Compound I-287], in data set [1], the “Caco-2: Efflux Ratio” value is 135 and the “Caco-2: Papp A-B” value is 0.13 10^−6 cm/s.

`Cc1ccc(-c2noc(C3CC(C)(F)C3)n2)cc1NC(=O)c1cnc2ccccn12` (centres unmarked) [Compound I-387]: in data set [1], the “Caco-2: Efflux Ratio” value is reported as 0.77 and the “Caco-2: Papp A-B” value is reported as 14.5 10^−6 cm/s.

`COc1ccn2c(C(=O)Nc3cc(-c4noc(CC5CC(F)(F)C5)n4)ccc3C)cnc2c1` [Compound I-91]: the IC50 in data set [2] and in data set [3] was 0.05 to 0.5 µM in each case.

On to `Cc1ccc(-c2noc([C@H]3C[C@@H]3F)n2)cc1NC(=O)c1cnn2ccccc12` [Compound I-109], for which the half-maximal inhibitory concentration (IC50) in data set [2] lay within 0.5 to 5 µM; in data set [3], 0.05 to 0.5 µM.

For the compound `Cc1ccc(-c2noc(C(C)NS(C)(=O)=O)n2)cc1NC(=O)c1cnc2ccccn12` (single isomer, unassigned) [Compound I-237], in data set [1], the “Caco-2: Efflux Ratio” value is given as 57.6 and the “Caco-2: Papp A-B” value is recorded as 0.50 10^−6 cm/s.

With `CCCNc1ccn2c(C(=O)Nc3cc(-c4noc([C@H]5C[C@@H]5F)n4)ccc3C)cnc2c1` [Compound I-304], in data set [1], the “Caco-2: Efflux Ratio” value amounted to 0.92 and the “Caco-2: Papp A-B” value was 4.31 10^−6 cm/s.

As to `Cc1ccc(-c2noc(C3(N)CC4(CC(F)(F)C4)C3)n2)cc1NC(=O)c1cnc2ccccn12` [Compound I-307], in data set [1], the “Caco-2: Efflux Ratio” value amounted to 1.79 and the “Caco-2: Papp A-B” value is given as 9.28 10^−6 cm/s.

Turning to `COc1ccn2c(C(=O)Nc3cc(-c4noc(CC(O)C(F)F)n4)ccc3C)cnc2c1` (single isomer, unassigned) [Compound I-76], the IC50 is 0.05 to 0.5 µM in data set [2] and at most 0.05 µM in data set [3].

As for `COC(=O)N1CC(c2nc(-c3ccc(Cl)c(NC(=O)c4cnc5ccccn45)c3)no2)C1` [Compound I-339], in data set [1], the “Caco-2: Efflux Ratio” value was found to be 0.56 and the “Caco-2: Papp A-B” value is on record as 22.2 10^−6 cm/s. Further, in data set [2], the half-inhibitory concentration (IC50) lay within 0.5 to 5 µM. Also, the IC50 in data set [3] was in the range of 0.5 to 5 µM.

In the case of `O=C(Nc1cc(-c2noc([C@H]3C[C@@H]3F)n2)ccc1Cl)c1cnc2ccccn12` [Compound I-341], in data set [1], the “Caco-2: Efflux Ratio” value is 0.56 and the “Caco-2: Papp A-B” value was 16.2 10^−6 cm/s.

Take `Cc1ccc(-c2noc(C3(C)CC(F)(F)CN3)n2)cc1NC(=O)c1cnc2ccccn12` (racemic) [Compound I-328]: in data set [1], the “Caco-2: Efflux Ratio” value amounted to 1.02 and the “Caco-2: Papp A-B” value is on record as 18.2 10^−6 cm/s.

Take `COc1ccn2c(C(=O)Nc3cc(-c4noc(C[C@H](C)O)n4)ccc3C)cnc2c1` [Compound I-94]: the concentration for half-maximal inhibition (IC50) in data set [2] is 0.05 to 0.5 µM; in data set [3], at most 0.05 µM.

With `CCOc1ccn2c(C(=O)Nc3cc(-c4noc([C@H]5C[C@@H]5F)n4)ccc3C)cnc2c1` [Compound I-93], the IC50 in data set [2] is 0.05 to 0.5 µM; in data set [3], at most 0.05 µM.

Consider `Cc1nc(-c2ccc(C)c(NC(=O)c3cnc4ccccn34)c2)no1` [Compound I-360], for which, in data set [1], the “Caco-2: Efflux Ratio” value is 0.36 and the “Caco-2: Papp A-B” value is given as 12.7 10^−6 cm/s.

On to `Cc1ccc(-c2noc(C3CC(OCCF)C3)n2)cc1NC(=O)c1cnc2ccccn12` (centres unmarked) [Compound I-369], for which, in data set [1], the “Caco-2: Efflux Ratio” value amounted to 0.77 and the “Caco-2: Papp A-B” value is 20.6 10^−6 cm/s. Besides, the IC50 in data set [2] was 5 to 30 µM. The IC50 in data set [3] lay within 5 to 30 µM.

For `Cc1ccc(-c2noc(CCO)n2)cc1NC(=O)c1cnc2ccccn12` [Compound I-306], in data set [1], the “Caco-2: Efflux Ratio” value was 3.66 and the “Caco-2: Papp A-B” value is on record as 7.03 10^−6 cm/s. Besides, in data set [2], the concentration for half-maximal inhibition (IC50) lay in the range of 0.5 to 5 µM. Also, in data set [3], the concentration for half-maximal inhibition (IC50) fell in the range of 0.5 to 5 µM.

`Cc1ccc(-c2noc(C3CCS(=O)(=O)C3)n2)cc1NC(=O)c1cnc2ccccn12` (racemic) [Compound I-389]: in data set [1], the “Caco-2: Efflux Ratio” value is on record as 25.4 and the “Caco-2: Papp A-B” value was 1.25 10^−6 cm/s.

For `Cc1ccc(-c2noc(C3(O)CC(F)(F)C3)n2)cc1NC(=O)c1cnc2ccccn12` [Compound I-380], in data set [1], the “Caco-2: Efflux Ratio” value turned out to be 3.45 and the “Caco-2: Papp A-B” value was 7.5 10^−6 cm/s.

Consider `Cc1ccc(-c2noc([C@@H](C)O)n2)cc1NC(=O)c1cnc2ccccn12` [Compound I-270], for which, in data set [1], the “Caco-2: Efflux Ratio” value worked out at 3.35 and the “Caco-2: Papp A-B” value is reported as 8.5 10^−6 cm/s.
